Experiments:
[1] = molecular target: Kgp (Porphyromonas gingivalis (Bacteroides gingivalis), UniProt Q51817); assay: Cy5 activity-based probe detection of Kgp in P. gingivalis lysate; format: binding; details: 100 nM, FIG. 9C
Procedure: It has a warhead that binds to the Kgp active site, a peptide-based core, and a Cy5 fluorophore for detection. Labeled target proteins can be visualized by biochemical separation of a sample with fractionation by 2-D gel electrophoresis and detection of fluorescent signals from Cy5 at the appropriate excitation and emission wavelength. Incubation of a fixed concentration of the probe following binding of Kgp to a test compound (e.g., a candidate Kgp inhibitor) results in binding of the activity probe to Kgp active sites not already bound by the test compound.
10^8 bacteria were collected and centrifuged at 5000 g for 10 min at 4° C., and the supernatant was discarded. The bacterial cell pellet was lysed with 1 mL of B-Per lysis buffer (Thermo Fischer) on ice for 10 min, then centrifuged for 10 min at 14000 g, 4° C. Supernatant-containing protein lysate was collected. Biological samples were lysed with B-Per lysis buffer for 10 min at 4° C.
Biological samples, P. gingivalis lysate or purified Kgp were incubated with quenchable Cy5 probe compound 71 (1 μM) for 1 h at 37° C. with shaking. Then, samples were denatured with NUPAGE LDS sample buffer (Thermo Fisher) containing 50 mM DTT at 95° C. for 10 min and subjected to SDS-PAGE electrophoresis using a Criterion 4-15% precast gel (Bio-Rad) and Tris/Glycine/SDS running buffer (Bio-Rad). The gel was run at 75V for 10 min and then 125V for 1.5 h. The gel was then removed from the plastic cassette and subjected to Cy5 visualization with a ChemiDoc imaging system (Bio-Rad).
Samples were labeled with quenchable Cy5 probe compound 71 (1 μM) for 1 h at 37° C. with shaking. For immunoprecipitation of Cy5 labeled Kgp, the samples were then incubated with 10 μg of rabbit polyclonal CAB102 antibody with rotation overnight at 4° C. Then, samples were incubated with prewashed Dynabead Protein G beads with rotation for 20 min at room temperature. The samples were washed 4 times with 200 μL of washing buffer, using a magnetic rack. […]

[2] = test system: arginine gingipain, Rgp; assay: Inhibition of arginine gingipain; format: biochemical, Porphyromonas gingivalis; details: 100 nM
[3] = test system: P. gingivalis W83; assay: Mouse periodontitis model, P. gingivalis DNA in brain tissue (qPCR); format: in vivo, BALB/C mice; details: between week 5 and 10
Procedure: At the beginning of the study, eight week old BALB/C female mice received antibiotic in drinking water (sulfamethoxazolum 0.87 mg/mL, trimethoprimum 0.17 mg/mL) for 10 days to reduce microbiome protection from experiment infection. Experimental periodontitis was induced by ligature placement followed by multiple exposures to P. gingivalis. During the ligature procedure mice were anesthetized with an intraperitoneal injection of ketamine (200 mg/kg) and xylazine (10 mg/kg), and eyes were lubricated with ointment (Puralube Vet; Pharmaderm, Melville, N.Y.). Next, a 5-0 silk ligature (Roboz Surgical Instrument Co.) was tied around the upper maxillary left and right second molar. Sutures were applied and tied gently to prevent damage to the periodontal tissue.
Mice (n=8-10/arm) were infected for 6 weeks every other day. For infection, […]. of bacteria solution were applied topically to the buccal surface of the maxillae. For preparation of the bacteria, P. gingivalis W83 (ATCC, Rockville, Md.) was streaked on Tryptic Soy Broth (TSB) agar plates (5% sheep blood, supplemented with 0.5 mg/mL L-cysteine, 5 μg/mL hemin, and 0.5 μg/mL vitamin K) and grown under anaerobic conditions at 37° C. for 5-7 days. Samples were then inoculated in TSB with hemin, vitamin K and L-cysteine (TSB-HKC) until mid-log phase (OD600=0.5-0.7). Bacteria were washed in PBS and prepared at final concentration of 1×10^10 cells/mL in PBS+2% methylcellulose (CMC).
Vehicle-treated animals received PBS only. At 5 weeks, a subgroup of animals (n=16) were euthanized to gather baseline measurements before the start of treatment. After 10 weeks, mice were euthanized and the brain, serum, and maxillary tissues were harvested and frozen in liquid nitrogen.
DNA was extracted from brain tissue using the DNeasyBLOOD & TISSUE KIT (Qiagen, Germany) according to manufacturer's protocol. […] The number of copies of the P. gingivalis genome was calculated by matching Cq values with a standard curve prepared from serial dilutions of cultured P. gingivalis W83 (WT). […]

Chain of Kgp (Q51817 229-737 limits assumed): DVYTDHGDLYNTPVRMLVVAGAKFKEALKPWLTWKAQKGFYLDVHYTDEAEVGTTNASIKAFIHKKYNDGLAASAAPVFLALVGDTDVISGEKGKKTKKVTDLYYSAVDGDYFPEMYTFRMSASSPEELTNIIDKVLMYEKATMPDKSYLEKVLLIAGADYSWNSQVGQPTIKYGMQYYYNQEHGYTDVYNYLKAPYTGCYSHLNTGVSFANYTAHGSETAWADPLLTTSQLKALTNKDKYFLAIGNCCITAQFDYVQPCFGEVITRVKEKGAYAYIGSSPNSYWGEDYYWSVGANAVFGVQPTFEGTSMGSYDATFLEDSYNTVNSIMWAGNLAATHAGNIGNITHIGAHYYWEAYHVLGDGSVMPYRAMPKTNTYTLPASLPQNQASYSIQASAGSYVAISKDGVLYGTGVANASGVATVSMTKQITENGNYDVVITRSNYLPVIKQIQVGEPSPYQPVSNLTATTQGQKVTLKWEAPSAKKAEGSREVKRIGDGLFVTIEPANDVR

Q: `NCCCC[C@H](NC(=O)C1CCCC1)C(=O)COc1c(F)ccc(F)c1F` [Compound 1, (S)—N-(7-amino-2-oxo-1-(2,3,6-trifluorophenoxy)heptan-3-yl)cyclopentanecarboxamide] was tested. Which “competition with probe compound 71 for Kgp active site” value [1] did it give?
A: competes for active site binding

Q: What about the “inhibition of arginine gingipain, Rgp” value [2] of the same compound?
A: does not inhibit

Q: What about the “reduction in P. gingivalis DNA copy number in brain tissue” value ([3]; 3 mg/kg) of the same compound?
A: ~50%

Q: And the “reduction in P. gingivalis DNA copy number in brain tissue” value ([3]; 10 mg/kg)?
A: ~50%

Q: And the “reduction in P. gingivalis DNA copy number in brain tissue” value ([3]; 30 mg/kg)?
A: ~80%

Reference: US10730826B2, “Ketone inhibitors of lysine gingipain” (CORTEXYME, INC., priority 2016, dated 2020)
